Laboratory results from patent US10996215B2, “Methods for determining drug efficacy for the treatment of diffuse large B-cell lymphoma, multiple myeloma, and myeloid cancers” (CELGENE CORPORATION, priority 2013, dated 2021).

Columns and labels:
[1] = tested on: IRF7, IFN response; experiment: IFN response, Western blot of IRF7 in U2932 (ABC) cells; type: cell-based
Procedure: U2932 (ABC) cells were cultured and cell-passaged long-term in Compound A as described in Section 6.10. Levels of Aiolos, IRF7, and β-actin (control) were assessed using Western blotting, essentially as described above in Section 6.8.

[2] = tested on: IFN pathway; experiment: effect on IFN pathway (FIG. 13); type: cell-based
[3] = tested on: Aiolos, Ikaros, ZFP91; experiment: CRBN dependence of ZFP91 reduction in U266 cells, Western blot; type: cell-based; details: 6 hour
Procedure: U266 cells were transduced with inducible shRNA constructs targeting CRBN or targeting luciferase as control. Cells were grown in the presence or in the absence of 10 ng/ml Doxycycline, and in the presence or in the absence of 1 μM pomalidomide. Cells were harvested and were treated in cell lysis buffer to generate cell lysates. Proteins from cell lysate were separated by gel electrophoresis and transferred to nitrocellulose membranes. Immunoblots were then probed with antibodies recognizing Aiolos, CRBN, Ikaros, ZFP91, IRF4, IFIT1, IFIT3, P-STAT1, and β-actin (Li-Cor).
Cells were harvested, and lysates were run on 10% SDS-PAGE and immunoblotted with the appropriate antibodies.
MG132 activates c-Jun N-terminal kinase (JNK1), which initiates apoptosis. […] MLN4924 is a NAE1 inhibitor that blocks the activity of Cullin Ring Ligases (CRLs), such as CRL4^CRBN. […] Cells were harvested and lysates were run on 10% SDS-PAGE, transferred to nitrocellulose and immunoblotted with the corresponding antibodies.

[4] = tested on: Aiolos, Ikaros; experiment: FFPE IHC for Aiolos and Ikaros in WSU-DLCL2 xenograft tumors; type: in vivo; details: WSU-DLCL2 xenograft SCID mice, 30 mg/kg qd
Procedure: WSU-DLCL2 xenograft SCID mice can be prepared using methods known in the art. In brief, female CB17 severe combined immunodeficiency (SCID) mice (6-12 weeks old) are obtained from the Charles River Laboratory (Wilmington, Mass.) and maintained in microisolator cages under sterile conditions. A total of 10×10^6 WSU-DLCL2 DLBCL cells in 100% Matrigel® (Becton Dickinson, San Jose, Calif.) are injected subcutaneously into the right flank of mice. Mice are monitored 2 or 3 times a week for the appearance of tumors.
WSU-DLCL2 xenograft SCID mice (a human tumor xenograft model) were treated with either vehicle or 30 mg/kg Compound A q.d. Tumor samples were harvested at 1 hour, 6 hours, or 24 hours after the last dose.
Immunohistochemistry was performed using standard methods. For example, immunohistochemistry is performed on the Bond-Max™ automated slide stainer (Leica Microsystems) using the associated Bond™ Polymer Refine Detection Kit. Four micron thick FFPE sections are deparaffinized on the instrument. Antigen retrieval is performed with Epitope Retrieval™ 2 (pH 9.0) for 20 minutes at 100° C. The slides are blocked for endogenous peroxidase activity with Peroxide Block for 5 minutes at room temperature. […]

[5] = tested on: ZFP91, Aiolos; experiment: Western blot of ZFP91 and Aiolos in OCI-LY10 cells; type: cell-based; details: OCI-LY10, 6 hrs
Text: Cells were harvested with RIPA buffer, and proteins from cell lysates were separated by 10% sodium dodecyl sulfate polyacrylamide (SDS-PAGE) gel electrophoresis (Bio-Rad), and transferred to PVDF membranes (Invitrogen). Immunoblots were probed with antibodies recognizing Aiolos (9-9-7; Celgene), CK1α(Abcam), GSPT1 (Sigma), ZFP91 (LSBio) and β-actin (Li-Cor). Signals were detected with a Li-Cor Odyssey imager.
Immunoblots were probed with antibodies recognizing Aiolos (9-9-7; Celgene), GSPT1 (Sigma), ZFP91 (LSBio) and β-actin (Li-Cor). Signals were detected with a Li-Cor Odyssey imager.
OCI-LY10 cells treated with DMSO or various drugs for 6 hrs. Cells were harvested with RIPA buffer and proteins from cell lysates were separated by 10% sodium dodecyl sulfate polyacrylamide (SDS-PAGE) gel electrophoresis (Bio-Rad), and transferred to PVDF membranes (Invitrogen). Immunoblots were probed with antibodies recognizing: Aiolos (9-9-7; Celgene), CK1α(Abcam), GSPT1 (Sigma), ZFP91 (LSBio) and β-actin (Li-Cor). Signals were detected with a Li-Cor Odyssey imager.
OCI-LY10 cells were then treated with DMSO or various drugs for 6 hrs. […] Cells were harvested with RIPA buffer and Proteins from cell lysates were separated by 10% sodium dodecyl sulfate polyacrylamide (SDS-PAGE) gel electrophoresis (Bio-Rad), and transferred to PVDF membranes (Invitrogen). Immunoblots were probed with antibodies recognizing: Aiolos (9-9-7; Celgene), ZFP91 (LSBio), ZNF198 (LSBio) and β-actin (Li-Cor). Signals were detected with a Li-Cor™ Odyssey imager.
OCI-LY10 cells stably transduced with shCRBN 11 were induced for 48 hrs with either 0 or 10 ng/ml of doxycycline. […] Where MLN4924 treatments were present, MLN4924 was pre-incubated for 1 hr prior to drug treatment. Cells were harvested with RIPA buffer and Proteins from cell lysates were separated by 10% sodium dodecyl sulfate polyacrylamide (SDS-PAGE) gel electrophoresis (Bio-Rad), and transferred to PVDF membranes (Invitrogen). Immunoblots were probed with antibodies recognizing: CRBN-65, Aiolos (9-9-7; Celgene), Ikaros (Millipore), ZFP91 (LSBio) and β-actin (Li-Cor). Signals were detected with a Li-Cor Odyssey imager.

[6] = tested on: CSNK1A1 (CK1α), Ikaros; experiment: MG-132, MLN-4924 or Compound A pre-treatment, Western analysis in HNT-34 cells; type: cell-based; details: 10 μM Compound A 1.5 h, 0.3 μM or less lenalidomide, 3 h or 6 h

SMILES: Cc1nc2cccc(N)c2c(=O)n1C1CCC(=O)NC1=O (stereo not drawn) [Compound A, 3-(5-amino-2-methyl-4-oxo-4H-quinazolin-3-yl)-piperidine-2,6-dione]
- IFN response gene expression ([1]; FIG. 10A): up-regulates
- IRF7 protein expression ([1]; U2932 (ABC), Western blot): upregulates
- IFIT1, IFIT3, DDX58, XAF1, IFIH1, and OAS3 protein expression ([2]; FIG. 13A): upregulates
- DDX58, IFI27, IFIT1, IFIT3, DDX58, and XAF1 gene expression ([2]; FIG. 13B): upregulates
- ISG15 and OAS3 gene expression ([2]; FIG. 13C): upregulates
- IRF changes ([2]; FIG. 13E): induces
- IFIT1 and IFIT3 protein expression ([2]; FIG. 13F): upregulates
- IKKE protein level ([2]; FIG. 13F): reduces
- TBK1 phosphorylation (TBK1-PO4) ([2]; FIG. 13F): upregulates
- levels of STAT or phosphorylated STAT ([2]; FIG. 13G): induces changes
- destruction of Aiolos, Ikaros, and ZFP91 (CRBN dependent pathway) [3]: induced
- time to Aiolos and Ikaros degradation in tumor [4]: ≤ 6 h
- levels of ZFP91 and Aiolos ([5]; 100 mM thalidomide, 10 mM lenalidomide, 1 mM pomalidomide, 1 μM or 10 μM Compound A, 100 nM Compound B, FIG. 17A): reduced
- levels of ZFP91 and Aiolos ([5]; 1 or 10 μM lenalidomide, 0.1, 1 or 10 μM Compound A, FIG. 17B): reduced
- lenalidomide induced CSNK1A1 degradation after Compound A pre-treatment [6]: blocks
